# ChEMBL document CHEMBL3875185, “Structure-anticonvulsant activity studies in the group of (E)-N-cinnamoyl aminoalkanols derivatives monosubstituted in phenyl ring with 4-Cl, 4-CH3 or 2-CH3” (Bioorg Med Chem, 2017)
# How the values were obtained:
# [1] = target: D(3) dopamine receptor (Homo sapiens) (UniProt P35462); assay: Displacement of [3H]methyl-spiperone from human recombinant dopamine D3 receptor expressed in CHO cells at 100 uM measured after 60 mins by scintillation counting method relative to control; type: cell-based
# Sequence of D(3) dopamine receptor (Homo sapiens) (P35462 whole entry): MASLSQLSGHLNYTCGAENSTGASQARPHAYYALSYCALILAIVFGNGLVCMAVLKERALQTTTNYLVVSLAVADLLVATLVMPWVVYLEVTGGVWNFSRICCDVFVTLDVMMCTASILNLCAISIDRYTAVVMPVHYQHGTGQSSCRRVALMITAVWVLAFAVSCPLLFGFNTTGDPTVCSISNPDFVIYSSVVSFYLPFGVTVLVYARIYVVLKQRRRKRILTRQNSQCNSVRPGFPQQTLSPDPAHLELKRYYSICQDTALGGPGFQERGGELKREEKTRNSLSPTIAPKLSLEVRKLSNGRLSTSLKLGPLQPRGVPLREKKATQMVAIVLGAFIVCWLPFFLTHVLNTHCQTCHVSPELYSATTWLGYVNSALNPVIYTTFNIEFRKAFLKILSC
# [2] = target: Substance-P receptor (Homo sapiens) (UniProt P25103); assay: Displacement of [125I]BH-SP from NK1 receptor in human U373MG cells at 100 uM measured after 30 mins by scintillation counting method relative to control; type: cell-based; conditions: U-373MG ATCC
# Sequence of Substance-P receptor (Homo sapiens) (P25103 whole entry): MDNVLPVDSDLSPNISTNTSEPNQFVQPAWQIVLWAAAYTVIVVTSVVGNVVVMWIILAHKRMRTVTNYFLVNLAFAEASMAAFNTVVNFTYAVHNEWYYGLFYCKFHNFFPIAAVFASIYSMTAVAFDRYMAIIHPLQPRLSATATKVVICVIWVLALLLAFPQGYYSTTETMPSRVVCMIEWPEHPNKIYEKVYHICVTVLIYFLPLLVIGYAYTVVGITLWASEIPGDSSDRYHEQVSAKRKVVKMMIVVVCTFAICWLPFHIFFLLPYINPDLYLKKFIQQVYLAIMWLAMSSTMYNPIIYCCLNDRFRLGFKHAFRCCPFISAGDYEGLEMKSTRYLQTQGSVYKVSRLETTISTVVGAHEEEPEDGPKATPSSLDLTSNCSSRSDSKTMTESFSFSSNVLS
# [3] = target: D(2) dopamine receptor (Homo sapiens) (UniProt P14416); assay: Displacement of [3H]methyl-spiperone from human recombinant dopamine D2S receptor expressed in HEK293 cells at 100 uM measured after 60 mins by scintillation counting method relative to control; type: cell-based
# Sequence of D(2) dopamine receptor (Homo sapiens) (P14416 whole entry): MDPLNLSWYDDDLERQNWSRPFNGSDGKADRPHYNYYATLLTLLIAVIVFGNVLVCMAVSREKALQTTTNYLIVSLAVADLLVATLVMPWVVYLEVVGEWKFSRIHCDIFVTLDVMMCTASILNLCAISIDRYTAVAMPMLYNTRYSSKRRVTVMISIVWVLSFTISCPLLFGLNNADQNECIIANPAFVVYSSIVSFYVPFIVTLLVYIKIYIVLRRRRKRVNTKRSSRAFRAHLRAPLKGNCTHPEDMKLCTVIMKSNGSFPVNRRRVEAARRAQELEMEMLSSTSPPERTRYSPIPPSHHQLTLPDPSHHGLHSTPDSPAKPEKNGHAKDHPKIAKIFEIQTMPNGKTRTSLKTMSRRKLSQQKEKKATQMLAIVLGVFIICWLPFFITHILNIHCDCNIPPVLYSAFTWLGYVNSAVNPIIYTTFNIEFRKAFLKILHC
# [4] = target: T1, Cholecystokinin receptor type A (Homo sapiens) (UniProt P32238); assay: Displacement of [125I]CCK-8s from human recombinant CCK1 receptor expressed in CHO cells at 100 uM measured after 60 mins by scintillation counting method relative to control; type: cell-based
# T1 sequence (whole entry): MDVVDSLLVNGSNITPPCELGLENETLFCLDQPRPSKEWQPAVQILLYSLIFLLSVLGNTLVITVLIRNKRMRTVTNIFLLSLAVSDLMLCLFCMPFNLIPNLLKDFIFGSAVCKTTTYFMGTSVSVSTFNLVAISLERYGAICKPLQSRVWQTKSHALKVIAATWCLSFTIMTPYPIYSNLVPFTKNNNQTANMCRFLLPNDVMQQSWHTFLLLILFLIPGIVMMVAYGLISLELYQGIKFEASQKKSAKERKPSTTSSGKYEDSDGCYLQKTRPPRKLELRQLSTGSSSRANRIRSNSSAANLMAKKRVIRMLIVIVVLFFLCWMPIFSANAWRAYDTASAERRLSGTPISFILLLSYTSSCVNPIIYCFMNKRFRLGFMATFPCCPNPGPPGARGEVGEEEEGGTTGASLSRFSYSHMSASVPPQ
# [5] = target: T2, Neuromedin-K receptor (Homo sapiens) (UniProt P29371); assay: Displacement of [3H]SR 142801 from human recombinant NK3 receptor expressed in CHO cells at 100 uM measured after 120 mins by scintillation counting method relative to control; type: cell-based
# T2 sequence (whole entry): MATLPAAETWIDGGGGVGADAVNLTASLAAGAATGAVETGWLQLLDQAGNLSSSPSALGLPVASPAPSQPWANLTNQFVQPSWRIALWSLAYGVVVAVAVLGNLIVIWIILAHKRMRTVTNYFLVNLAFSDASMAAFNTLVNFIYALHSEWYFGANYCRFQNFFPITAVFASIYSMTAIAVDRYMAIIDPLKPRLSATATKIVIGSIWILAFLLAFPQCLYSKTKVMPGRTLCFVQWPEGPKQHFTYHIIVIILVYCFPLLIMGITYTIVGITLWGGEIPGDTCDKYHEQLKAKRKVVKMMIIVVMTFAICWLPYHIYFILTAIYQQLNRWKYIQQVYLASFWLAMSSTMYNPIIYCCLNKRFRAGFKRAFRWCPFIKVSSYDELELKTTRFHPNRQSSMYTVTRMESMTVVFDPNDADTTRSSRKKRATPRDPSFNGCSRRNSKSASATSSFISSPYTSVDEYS
# [6] = target: T3, 5-hydroxytryptamine receptor 1A (Homo sapiens) (UniProt P08908); assay: Displacement of [3H]8-OH-DPAT from human recombinant 5HT1A receptor expressed in HEK293 cells at 100 uM measured after 60 mins by scintillation counting method relative to control; type: cell-based
# T3 sequence (whole entry): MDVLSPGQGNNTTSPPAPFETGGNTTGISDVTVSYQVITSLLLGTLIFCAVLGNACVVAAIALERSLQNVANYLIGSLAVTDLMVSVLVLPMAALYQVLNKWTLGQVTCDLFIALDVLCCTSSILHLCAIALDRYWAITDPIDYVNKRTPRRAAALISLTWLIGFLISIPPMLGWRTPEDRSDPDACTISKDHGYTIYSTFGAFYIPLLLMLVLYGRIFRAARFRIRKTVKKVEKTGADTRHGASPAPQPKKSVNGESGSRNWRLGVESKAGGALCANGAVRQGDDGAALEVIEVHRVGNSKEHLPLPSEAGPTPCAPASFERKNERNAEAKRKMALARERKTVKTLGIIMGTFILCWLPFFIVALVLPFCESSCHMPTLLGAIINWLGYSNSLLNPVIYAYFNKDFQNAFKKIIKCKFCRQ
# [7] = target: 5-hydroxytryptamine receptor 1B (Rattus norvegicus) (UniProt P28564); assay: Displacement of [125I]CYP from rat cerebral cortex 5HT1B receptor at 100 uM measured after 120 mins by scintillation counting method relative to control
# Sequence of 5-hydroxytryptamine receptor 1B (Rattus norvegicus) (P28564 whole entry): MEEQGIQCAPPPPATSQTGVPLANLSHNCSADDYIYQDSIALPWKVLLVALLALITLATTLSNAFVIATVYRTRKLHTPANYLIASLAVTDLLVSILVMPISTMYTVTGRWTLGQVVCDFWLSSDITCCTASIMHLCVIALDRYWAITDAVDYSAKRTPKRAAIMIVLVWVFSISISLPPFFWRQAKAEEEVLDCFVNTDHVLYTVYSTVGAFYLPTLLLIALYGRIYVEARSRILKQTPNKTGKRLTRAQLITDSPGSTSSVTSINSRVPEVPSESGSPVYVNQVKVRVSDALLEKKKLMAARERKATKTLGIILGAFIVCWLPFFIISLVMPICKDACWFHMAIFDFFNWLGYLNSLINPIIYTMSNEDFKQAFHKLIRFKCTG
# [8] = target: D(1A) dopamine receptor (Homo sapiens) (UniProt P21728); assay: Displacement of [3H]SCH 23390 from human recombinant dopamine D1 receptor expressed in CHO cells at 100 uM measured after 60 mins by scintillation counting method relative to control; type: cell-based
# Sequence of D(1A) dopamine receptor (Homo sapiens) (P21728 whole entry): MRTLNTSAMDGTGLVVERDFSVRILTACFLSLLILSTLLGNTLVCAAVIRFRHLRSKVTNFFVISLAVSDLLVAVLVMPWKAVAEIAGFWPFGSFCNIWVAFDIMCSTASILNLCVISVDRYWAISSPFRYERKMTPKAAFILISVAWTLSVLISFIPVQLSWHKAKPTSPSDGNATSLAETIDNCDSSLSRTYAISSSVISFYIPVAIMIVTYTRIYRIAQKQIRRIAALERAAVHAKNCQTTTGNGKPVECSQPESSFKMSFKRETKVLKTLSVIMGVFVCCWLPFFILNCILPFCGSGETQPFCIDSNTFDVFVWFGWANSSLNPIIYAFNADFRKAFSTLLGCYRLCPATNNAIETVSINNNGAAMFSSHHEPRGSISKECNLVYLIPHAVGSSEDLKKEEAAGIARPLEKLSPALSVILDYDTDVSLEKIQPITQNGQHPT
# [9] = target: Adenosine receptor A2a (Homo sapiens) (UniProt P29274); assay: Displacement of [3H]CGS 21680 from human recombinant adenosine receptor A2A expressed in HEK293 cells at 100 uM measured after 120 mins by scintillation counting method relative to control; type: cell-based
# Sequence of Adenosine receptor A2a (Homo sapiens) (P29274 whole entry): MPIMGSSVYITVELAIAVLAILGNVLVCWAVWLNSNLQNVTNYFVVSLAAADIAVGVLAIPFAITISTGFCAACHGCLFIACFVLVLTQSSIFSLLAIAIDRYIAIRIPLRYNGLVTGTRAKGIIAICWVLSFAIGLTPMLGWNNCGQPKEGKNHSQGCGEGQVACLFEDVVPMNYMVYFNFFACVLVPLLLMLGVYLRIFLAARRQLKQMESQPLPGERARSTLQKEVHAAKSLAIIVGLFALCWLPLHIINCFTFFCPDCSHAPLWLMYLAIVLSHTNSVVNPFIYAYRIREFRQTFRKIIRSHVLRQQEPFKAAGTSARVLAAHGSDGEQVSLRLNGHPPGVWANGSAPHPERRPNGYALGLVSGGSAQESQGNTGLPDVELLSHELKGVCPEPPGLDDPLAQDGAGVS
# [10] = target: T4, Substance-K receptor (Homo sapiens) (UniProt P21452); assay: Displacement of [125I]NKA from human recombinant NK2 receptor expressed in CHO cells at 100 uM measured after 60 mins by scintillation counting method relative to control; type: cell-based
# T4 sequence (whole entry): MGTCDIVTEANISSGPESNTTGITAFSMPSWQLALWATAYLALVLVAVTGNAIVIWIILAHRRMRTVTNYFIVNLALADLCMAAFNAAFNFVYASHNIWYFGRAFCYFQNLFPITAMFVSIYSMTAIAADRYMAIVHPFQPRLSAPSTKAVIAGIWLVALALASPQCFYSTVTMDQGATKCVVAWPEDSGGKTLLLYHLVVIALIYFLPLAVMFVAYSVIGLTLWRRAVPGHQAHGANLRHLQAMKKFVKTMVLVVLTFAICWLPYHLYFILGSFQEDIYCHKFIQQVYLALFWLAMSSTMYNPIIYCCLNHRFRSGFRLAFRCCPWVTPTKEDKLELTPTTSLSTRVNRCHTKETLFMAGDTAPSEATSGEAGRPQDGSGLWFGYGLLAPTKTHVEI
# [11] = target: Prostacyclin receptor (Homo sapiens) (UniProt P43119); assay: Displacement of [3H]iloprost from human recombinant IP receptor expressed in HEK293 cells at 100 uM measured after 60 mins by scintillation counting method relative to control; type: cell-based
# Sequence of Prostacyclin receptor (Homo sapiens) (P43119 whole entry): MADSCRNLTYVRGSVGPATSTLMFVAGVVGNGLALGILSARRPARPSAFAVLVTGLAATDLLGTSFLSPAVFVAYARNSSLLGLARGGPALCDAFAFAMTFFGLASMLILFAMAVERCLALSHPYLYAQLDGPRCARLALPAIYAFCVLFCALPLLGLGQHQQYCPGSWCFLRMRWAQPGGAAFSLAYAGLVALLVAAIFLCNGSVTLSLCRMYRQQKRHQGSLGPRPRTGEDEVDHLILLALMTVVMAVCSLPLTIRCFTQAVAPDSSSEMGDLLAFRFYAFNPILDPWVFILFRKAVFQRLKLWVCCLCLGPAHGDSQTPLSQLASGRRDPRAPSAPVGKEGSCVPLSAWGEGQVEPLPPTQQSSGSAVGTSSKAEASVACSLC
# [12] = system: Rattus norvegicus; assay: Anticonvulsant activity in ip dosed pentylenetetrazole induced seizure Sprague-Dawley rat model assessed as no observable episode of clonic convulsion of at least 5 secs; type: functional
# [13] = target: Sodium-dependent noradrenaline transporter (Homo sapiens) (UniProt P23975); assay: Displacement of [3H]nisoxetine from human recombinant norepinephrine transporter expressed in CHO cells at 100 uM measured after 120 mins by scintillation counting method relative to control; type: cell-based
# Sequence of Sodium-dependent noradrenaline transporter (Homo sapiens) (P23975 whole entry): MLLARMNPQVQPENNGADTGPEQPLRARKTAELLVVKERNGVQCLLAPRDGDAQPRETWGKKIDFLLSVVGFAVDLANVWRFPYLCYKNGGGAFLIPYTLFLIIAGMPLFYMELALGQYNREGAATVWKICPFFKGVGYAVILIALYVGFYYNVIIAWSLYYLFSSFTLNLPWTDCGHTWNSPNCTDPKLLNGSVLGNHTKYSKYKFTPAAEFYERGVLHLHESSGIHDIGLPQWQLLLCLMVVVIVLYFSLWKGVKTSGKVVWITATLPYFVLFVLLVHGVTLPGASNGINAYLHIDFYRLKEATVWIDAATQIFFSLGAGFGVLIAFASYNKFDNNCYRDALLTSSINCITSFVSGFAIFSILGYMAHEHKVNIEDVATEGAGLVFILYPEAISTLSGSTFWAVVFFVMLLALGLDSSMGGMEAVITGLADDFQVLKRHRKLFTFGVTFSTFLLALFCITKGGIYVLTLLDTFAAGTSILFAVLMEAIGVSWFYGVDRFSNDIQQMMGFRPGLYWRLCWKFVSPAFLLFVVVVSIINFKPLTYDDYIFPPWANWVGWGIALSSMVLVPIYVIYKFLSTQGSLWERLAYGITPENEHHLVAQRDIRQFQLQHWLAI
Structure (SMILES),inhibition [1] [%],inhibition [2] [%],inhibition [3] [%],inhibition [4] [%],inhibition [5] [%],inhibition [6] [%],inhibition [7] [%],inhibition [8] [%],inhibition [9] [%],inhibition [10] [%],inhibition [11] [%],ED50 [12] [mg/kg],inhibition [13] [%]
CCC(CO)NC(=O)/C=C/c1ccc(Cl)cc1 (centres undefined),18.2,3,1.8,11,5.8,28.2,-1.5,18.5,27.3,48.3,2.3,64.4,61.7
CC(O)CNC(=O)/C=C/c1ccc(Cl)cc1 (centres undefined),17.4,3.1,8.7,26,5.2,76.6,-3.2,14.9,25.2,19.5,1,56,48.1
Cc1ccccc1/C=C/C(=O)N[C@@H](C)CO,7.2,-5.7,5,-5.8,-0.4,51.2,32.4,7.2,3.8,1.2,-5,24.6,30.4
